{
  "source": "the NIST ThermoML archive (doi:10.1016/j.tca.2016.03.009)",
  "key": {"[1]": {"conditions": "DSC"}, "[2]": {"assay": "Molar enthalpy of transition or fusion", "conditions": "DSC"}},
  "note": "± gives the expanded uncertainty stated by the source.",
  "data": [
    {"smiles": "CCCCOc1cc2c3cc(OCCCC)c(OCCCC)cc3c3cc(OCCCC)c(OCCCC)cc3c2cc1OCCCC", "note": "[2,3,6,7,10,11-hexabutoxytriphenylene]", "values": [
      {"measurement": "Triple point temperature", "setting": "[1]; Crystal", "value": "360.35 ± 1", "unit": "K"},
      {"measurement": "Triple point temperature", "setting": "[1]; Liquid crystal of unknown type", "value": "417.95 ± 1", "unit": "K"},
      {"measurement": "Molar enthalpy of transition or fusion", "setting": "[2]; Crystal", "value": "5.4 ± 0.174", "unit": "kcal/mol"},
      {"measurement": "Molar enthalpy of transition or fusion", "setting": "[2]; Liquid crystal of unknown type", "value": "4.47 ± 0.141", "unit": "kcal/mol"}
    ]}
  ]
}
